These results are taken from publication PMC3402552 (Journal of Medicinal Chemistry, 2012).

One test addresses 5-HT2B (Homo sapiens, UniProt P41595). As to the kind of experiment: PDSP radioligand competition binding, 5-HT2B. The conditions noted are these: Figure 9B. (In a radioligand displacement assay an active substance lowers the binding of a labelled ligand.)
Another test relates to 5-HT2A F6.52L mutant. To be noted: F6.52L mutation; cited from earlier work.
The next test concerns 5-HT2A S3.36A/C mutant. The conditions noted are these: S3.36A/C mutations; cited from earlier work.
In a further test the test system is 5-HT2A F6.51L mutant. The conditions noted are these: cited from earlier work.
The next test relates to 5-HT2A W6.48A mutant. The conditions noted are these: cited from earlier work.
For a further test, the target named is T1, 5-HT1A (Homo sapiens, UniProt P08908).
T1 sequence (P08908 1-422): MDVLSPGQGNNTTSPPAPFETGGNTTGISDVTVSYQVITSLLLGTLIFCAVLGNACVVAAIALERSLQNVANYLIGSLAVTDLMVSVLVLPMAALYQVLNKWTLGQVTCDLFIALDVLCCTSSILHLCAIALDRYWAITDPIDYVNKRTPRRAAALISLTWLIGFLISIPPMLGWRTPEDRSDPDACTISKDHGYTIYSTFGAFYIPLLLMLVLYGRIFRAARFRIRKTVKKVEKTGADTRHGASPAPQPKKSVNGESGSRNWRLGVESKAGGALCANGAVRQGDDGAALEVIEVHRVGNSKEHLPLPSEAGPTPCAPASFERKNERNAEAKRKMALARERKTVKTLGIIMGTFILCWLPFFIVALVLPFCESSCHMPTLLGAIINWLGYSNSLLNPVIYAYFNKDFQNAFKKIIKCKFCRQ
To be noted: 5-HTR profiling.

The target in the next test is 5-HT5a (Homo sapiens, UniProt P47898). To be noted: 5-HTR profiling.
Another test concerns the target 5-HT2A (Homo sapiens, UniProt P28223). As to the kind of experiment: PDSP radioligand competition binding, 5-HT2A. To be noted: 5-HTR profiling.
Another test deals with 5-HT1B (Homo sapiens, UniProt P28222). As to the kind of experiment: PDSP radioligand competition binding, 5-HT1B. To be noted: 5-HTR profiling.
A further test deals with 5-HT7 (Homo sapiens, UniProt P34969). The conditions noted are these: 5-HTR profiling.
The next test has as its target 5-HT1E (Homo sapiens, UniProt P28566). As to the kind of experiment: PDSP radioligand competition binding, 5-HT1E. To be noted: 5-HTR profiling.
The target in another test is T2, 5-HT3 (Homo sapiens, UniProt P46098).
T2 sequence (P46098 24-478): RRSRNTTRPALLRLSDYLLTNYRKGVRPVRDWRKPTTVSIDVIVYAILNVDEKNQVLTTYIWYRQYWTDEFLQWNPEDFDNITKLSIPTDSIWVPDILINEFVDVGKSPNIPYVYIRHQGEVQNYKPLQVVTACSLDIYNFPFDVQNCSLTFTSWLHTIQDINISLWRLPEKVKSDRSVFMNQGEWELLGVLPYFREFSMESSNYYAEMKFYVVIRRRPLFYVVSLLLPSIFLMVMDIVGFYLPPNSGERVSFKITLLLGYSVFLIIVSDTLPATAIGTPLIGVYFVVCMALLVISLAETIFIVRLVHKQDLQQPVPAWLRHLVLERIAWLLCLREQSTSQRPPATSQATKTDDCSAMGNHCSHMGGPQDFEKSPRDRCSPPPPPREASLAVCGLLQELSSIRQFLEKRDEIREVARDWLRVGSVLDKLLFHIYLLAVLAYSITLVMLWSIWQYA
Kind of test: PDSP radioligand competition binding, 5-HT3. The conditions noted are these: 5-HTR profiling.

A further test deals with 5-HT6 (Homo sapiens, UniProt P50406). The conditions noted are these: 5-HTR profiling.
Chain of 5-HT6 (P50406 whole entry, species assumed): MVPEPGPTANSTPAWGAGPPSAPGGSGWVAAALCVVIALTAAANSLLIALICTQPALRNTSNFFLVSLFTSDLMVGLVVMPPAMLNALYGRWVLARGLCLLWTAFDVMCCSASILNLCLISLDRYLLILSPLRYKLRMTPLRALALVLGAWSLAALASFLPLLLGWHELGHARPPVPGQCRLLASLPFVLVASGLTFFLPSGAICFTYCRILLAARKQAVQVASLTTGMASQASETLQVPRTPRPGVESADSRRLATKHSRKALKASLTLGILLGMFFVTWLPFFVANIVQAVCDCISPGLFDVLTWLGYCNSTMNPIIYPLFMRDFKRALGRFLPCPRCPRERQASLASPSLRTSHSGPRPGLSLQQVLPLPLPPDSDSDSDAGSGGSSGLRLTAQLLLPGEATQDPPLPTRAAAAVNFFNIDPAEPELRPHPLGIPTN

Chain of 5-HT7 (P34969 whole entry, species assumed): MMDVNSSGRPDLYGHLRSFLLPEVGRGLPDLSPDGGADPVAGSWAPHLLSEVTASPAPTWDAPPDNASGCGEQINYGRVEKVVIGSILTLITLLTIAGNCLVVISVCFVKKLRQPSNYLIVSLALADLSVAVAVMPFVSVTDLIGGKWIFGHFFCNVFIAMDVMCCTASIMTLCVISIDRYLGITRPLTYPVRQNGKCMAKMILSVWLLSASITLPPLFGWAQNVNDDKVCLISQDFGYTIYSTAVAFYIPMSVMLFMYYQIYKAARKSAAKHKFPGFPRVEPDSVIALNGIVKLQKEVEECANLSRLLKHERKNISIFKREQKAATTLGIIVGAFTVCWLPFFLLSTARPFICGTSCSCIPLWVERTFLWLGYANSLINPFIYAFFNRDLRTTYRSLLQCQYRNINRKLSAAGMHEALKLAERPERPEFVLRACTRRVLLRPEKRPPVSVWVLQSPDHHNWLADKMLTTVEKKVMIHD
Chain of 5-HT2B (P41595 whole entry, species assumed): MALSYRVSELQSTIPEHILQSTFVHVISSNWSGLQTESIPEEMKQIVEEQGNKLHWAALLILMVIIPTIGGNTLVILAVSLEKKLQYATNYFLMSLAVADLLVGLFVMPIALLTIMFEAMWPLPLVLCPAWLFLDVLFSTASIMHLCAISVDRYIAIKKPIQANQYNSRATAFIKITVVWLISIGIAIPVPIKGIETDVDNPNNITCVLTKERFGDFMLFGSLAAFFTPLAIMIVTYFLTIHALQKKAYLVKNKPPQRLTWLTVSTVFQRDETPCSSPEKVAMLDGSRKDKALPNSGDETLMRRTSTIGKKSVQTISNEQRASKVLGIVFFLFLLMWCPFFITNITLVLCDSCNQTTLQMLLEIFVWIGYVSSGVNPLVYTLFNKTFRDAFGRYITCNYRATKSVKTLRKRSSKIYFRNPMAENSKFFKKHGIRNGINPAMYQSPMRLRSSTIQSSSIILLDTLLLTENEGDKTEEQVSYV
Chain of 5-HT5a (P47898 whole entry, species assumed): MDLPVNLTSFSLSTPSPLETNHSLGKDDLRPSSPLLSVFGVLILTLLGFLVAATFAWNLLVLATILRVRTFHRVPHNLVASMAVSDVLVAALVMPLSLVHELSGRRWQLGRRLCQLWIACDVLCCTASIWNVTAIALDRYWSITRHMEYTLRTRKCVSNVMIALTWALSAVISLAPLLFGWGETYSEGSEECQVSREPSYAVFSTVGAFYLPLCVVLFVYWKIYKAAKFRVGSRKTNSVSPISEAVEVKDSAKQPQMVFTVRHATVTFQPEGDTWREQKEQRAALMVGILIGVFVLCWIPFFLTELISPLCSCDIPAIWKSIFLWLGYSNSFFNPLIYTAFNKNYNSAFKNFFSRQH
Chain of 5-HT1B (P28222 whole entry, species assumed): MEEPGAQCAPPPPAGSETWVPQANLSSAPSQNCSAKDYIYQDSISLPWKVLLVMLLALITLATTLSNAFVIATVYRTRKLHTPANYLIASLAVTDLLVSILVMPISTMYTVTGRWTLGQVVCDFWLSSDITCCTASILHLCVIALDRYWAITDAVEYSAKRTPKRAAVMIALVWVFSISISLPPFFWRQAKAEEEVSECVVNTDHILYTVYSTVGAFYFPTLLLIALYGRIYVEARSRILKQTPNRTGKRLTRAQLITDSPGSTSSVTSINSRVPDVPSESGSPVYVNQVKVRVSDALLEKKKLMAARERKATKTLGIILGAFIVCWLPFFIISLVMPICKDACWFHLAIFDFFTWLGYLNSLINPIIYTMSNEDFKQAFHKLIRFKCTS
Chain of 5-HT1E (P28566 whole entry, species assumed): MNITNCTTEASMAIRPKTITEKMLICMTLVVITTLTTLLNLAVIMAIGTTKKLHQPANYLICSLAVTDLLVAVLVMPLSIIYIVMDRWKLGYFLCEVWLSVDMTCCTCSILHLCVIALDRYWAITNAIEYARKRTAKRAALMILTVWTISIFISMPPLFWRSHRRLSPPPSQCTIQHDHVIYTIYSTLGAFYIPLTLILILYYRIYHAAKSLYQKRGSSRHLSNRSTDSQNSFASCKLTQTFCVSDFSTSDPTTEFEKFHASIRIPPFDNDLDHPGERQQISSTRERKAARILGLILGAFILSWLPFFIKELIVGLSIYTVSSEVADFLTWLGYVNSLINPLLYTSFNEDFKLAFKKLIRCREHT
Chain of 5-HT2A (P28223 whole entry, species assumed): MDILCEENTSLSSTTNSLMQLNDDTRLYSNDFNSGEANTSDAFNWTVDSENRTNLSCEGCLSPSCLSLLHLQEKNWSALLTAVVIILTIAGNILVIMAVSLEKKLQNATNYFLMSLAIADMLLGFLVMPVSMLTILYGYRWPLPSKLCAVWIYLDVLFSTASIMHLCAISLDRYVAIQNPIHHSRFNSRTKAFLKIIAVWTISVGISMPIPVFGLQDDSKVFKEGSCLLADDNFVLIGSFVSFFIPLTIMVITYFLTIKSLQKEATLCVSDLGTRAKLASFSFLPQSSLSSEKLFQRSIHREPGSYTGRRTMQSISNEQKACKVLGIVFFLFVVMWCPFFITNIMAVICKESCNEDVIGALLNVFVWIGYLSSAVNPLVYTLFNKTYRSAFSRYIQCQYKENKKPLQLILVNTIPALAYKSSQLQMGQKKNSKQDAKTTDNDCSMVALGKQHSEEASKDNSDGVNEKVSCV

On to `CNC(=O)c1cccc(Oc2ccc(NC(=O)Nc3ccc(Cl)c(C(F)(F)F)c3)cc2)c1` [HN01], for which the “change of binding relative to sorafenib (in words)” value on 5-HT2B was “slight improvement of binding”.
For `O=C(c1ccc(F)cc1)C1CCN(CCn2c(=O)[nH]c3ccccc3c2=O)CC1` [ketanserin], the “effect of mutation on binding affinity (in words)” value in the test on 5-HT2A F6.52L mutant and with 5-HT2A S3.36A/C mutant was “almost no effect” in each case. For the same compound, the “decrease of binding by mutation” value is reported as “at least 800 fold” in the test on 5-HT2A F6.51L mutant and 7 fold in the test on 5-HT2A W6.48A mutant.
For the compound `CNC(=O)c1cc(Oc2ccc(NC(=O)Nc3ccc(Cl)c(C(F)(F)F)c3)cc2)ccn1` [sorafenib], the “binding (in words)” value at 5-HT1A is reported as “weakly binds”; on 5-HT5a, “weakly binds”; at 5-HT2A, “weakly binds”; at 5-HT1B, “doesn’t bind”; at 5-HT7, “weakly binds”; on 5-HT1E, “doesn’t bind”. Also, the figures for the “binding (in words)” value on 5-HT3 and at 5-HT6 were “doesn’t bind” and “weakly binds”, respectively.
